{"source": "paper PMC2806030", "about": "“Inhibition of mammalian S6 kinase by resveratrol suppresses autophagy” (Aging (Albany NY), 2009)", "experiment_in_all_cases": "biochemical", "design_in_all_cases": "Upstate KinaseProfiler in vitro kinase activity assay, per cent of DMSO control", "conditions_in_all_cases": "read-out: Activity (% of Control)", "key": {"[1]": {"molecular_target": "Jak2 (Homo sapiens, UniProt O60674)", "sequence (O60674 whole entry)": "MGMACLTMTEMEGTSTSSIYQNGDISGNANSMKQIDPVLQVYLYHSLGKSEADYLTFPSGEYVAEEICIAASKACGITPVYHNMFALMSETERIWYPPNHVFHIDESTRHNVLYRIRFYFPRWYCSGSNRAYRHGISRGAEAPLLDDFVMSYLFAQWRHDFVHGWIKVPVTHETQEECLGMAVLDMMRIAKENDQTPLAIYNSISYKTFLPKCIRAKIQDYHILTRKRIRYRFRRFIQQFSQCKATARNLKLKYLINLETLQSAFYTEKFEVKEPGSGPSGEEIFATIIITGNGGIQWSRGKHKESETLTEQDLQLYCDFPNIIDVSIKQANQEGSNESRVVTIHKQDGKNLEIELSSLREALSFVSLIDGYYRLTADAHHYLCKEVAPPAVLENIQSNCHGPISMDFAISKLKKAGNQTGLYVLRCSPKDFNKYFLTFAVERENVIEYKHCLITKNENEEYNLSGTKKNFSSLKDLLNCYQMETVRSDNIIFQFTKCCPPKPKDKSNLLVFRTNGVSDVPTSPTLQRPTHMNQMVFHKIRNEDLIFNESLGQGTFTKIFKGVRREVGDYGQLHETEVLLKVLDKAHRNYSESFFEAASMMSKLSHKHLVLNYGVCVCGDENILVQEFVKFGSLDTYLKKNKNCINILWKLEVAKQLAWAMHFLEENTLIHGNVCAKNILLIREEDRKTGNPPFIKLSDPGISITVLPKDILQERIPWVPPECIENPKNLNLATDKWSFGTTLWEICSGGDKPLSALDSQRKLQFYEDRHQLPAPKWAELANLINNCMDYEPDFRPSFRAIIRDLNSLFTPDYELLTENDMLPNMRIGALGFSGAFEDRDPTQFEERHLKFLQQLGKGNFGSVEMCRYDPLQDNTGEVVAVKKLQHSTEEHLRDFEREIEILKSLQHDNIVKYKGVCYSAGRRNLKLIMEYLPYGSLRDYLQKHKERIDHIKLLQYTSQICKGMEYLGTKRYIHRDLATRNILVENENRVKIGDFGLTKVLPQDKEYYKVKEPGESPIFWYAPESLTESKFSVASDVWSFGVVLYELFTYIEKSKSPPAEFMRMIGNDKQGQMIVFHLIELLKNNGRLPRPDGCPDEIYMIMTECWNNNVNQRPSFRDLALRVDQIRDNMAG", "description": "(§1) Kinase profile and kinase assay. A Kinase profile against 100 kinases listed for resveratrol at 20 μM was generated utilizing Upstate's KinaseProfiler™ service. Assay protocols for each kinase are available from Upstate (Lake Placid, NY). In vitro kinase assay was performed as described previously. Briefly, HEK293 cells were transfected with HA-S6K1 wt, HA-S6K1 K100R, or vector as indicated. Cells were treated with 1 μg/ml insulin for 10 minutes prior to harvesting in PBS + 0.5% NP-40 + protease and phosphatase inhibitors. 125 μg of lysate per sample was immunoprecipitated using 0.5 μg/sample of anti-HA High-Affinity (Roche, Basel Switzerland). Beads from immunoprecipitations were washed three times in lysis buffer and once in kinase buffer, and kinase assays were performed with recombinant GST-S6 as substrate (1 μg per assay). In the indicated lanes varying doses of resveratrol or DMSO control were added to the reaction prior to addition of the GST-S6 substrate. All samples were subjected to SDS-PAGE, and 32P incorporation was quantified by using a Bio-Rad (Hercules, CA) Phosphor-Imager and subsequent analysis with ImageJ (NIH).  Figure 4. Resveratrol inhibits S6K1 in vitro. (A) Structural similarity between resveratrol and quercetin, a known kinase inhibitor. (B) Kinase inhibition profile for resveratrol at 20 μM obtained using KinaseProfiler™ (Upstate). Dashed line represents 100% activity as compared to control. Black filled-in bar on the graph indicates S6K1. Complete data set is provided in Supplementary Table 1. Error bars represent s.d.m. (C) Phosphorylation of recombinant GST-tagged S6 by immunoprecipitated HA-S6K1 under increasing concentrations of resveratrol (Res). Autoradiograph depicts S6K1 phosphorylation of GST-S6. (D) Average of three separate kinase assay experiments as performed in (C). Densitometry was performed using NIH ImageJ. Error bars represent s.e.m. […] Therefore, we hypothesized that the effect of resveratrol on autophagy could be related to inhibition of one or more upstream kinases. To test this, we performed an in vitro kinase screen and determined an inhibition profile for resveratrol. […] With the exception of S6K1, these kinases play primary roles in the hematopoietic system, and were thus viewed as unlikely to have been responsible for the effect we were studying. […] On the other hand, S6K1 is known to play a requisite role in the regulation of autophagy in Drosophila, making it a promising candidate for the in vivo target of resveratrol that is responsible for inhibition of autophagy."}, "[2]": {"molecular_target": "EphB2(h) (Homo sapiens, UniProt P29323)", "description": "as §1"}, "[3]": {"molecular_target": "T1, PI 3-Kinaseγ(h) (Homo sapiens, UniProt P48736)", "T1 construct": "gene PIK3CG", "T1 sequence (P48736 whole entry)": "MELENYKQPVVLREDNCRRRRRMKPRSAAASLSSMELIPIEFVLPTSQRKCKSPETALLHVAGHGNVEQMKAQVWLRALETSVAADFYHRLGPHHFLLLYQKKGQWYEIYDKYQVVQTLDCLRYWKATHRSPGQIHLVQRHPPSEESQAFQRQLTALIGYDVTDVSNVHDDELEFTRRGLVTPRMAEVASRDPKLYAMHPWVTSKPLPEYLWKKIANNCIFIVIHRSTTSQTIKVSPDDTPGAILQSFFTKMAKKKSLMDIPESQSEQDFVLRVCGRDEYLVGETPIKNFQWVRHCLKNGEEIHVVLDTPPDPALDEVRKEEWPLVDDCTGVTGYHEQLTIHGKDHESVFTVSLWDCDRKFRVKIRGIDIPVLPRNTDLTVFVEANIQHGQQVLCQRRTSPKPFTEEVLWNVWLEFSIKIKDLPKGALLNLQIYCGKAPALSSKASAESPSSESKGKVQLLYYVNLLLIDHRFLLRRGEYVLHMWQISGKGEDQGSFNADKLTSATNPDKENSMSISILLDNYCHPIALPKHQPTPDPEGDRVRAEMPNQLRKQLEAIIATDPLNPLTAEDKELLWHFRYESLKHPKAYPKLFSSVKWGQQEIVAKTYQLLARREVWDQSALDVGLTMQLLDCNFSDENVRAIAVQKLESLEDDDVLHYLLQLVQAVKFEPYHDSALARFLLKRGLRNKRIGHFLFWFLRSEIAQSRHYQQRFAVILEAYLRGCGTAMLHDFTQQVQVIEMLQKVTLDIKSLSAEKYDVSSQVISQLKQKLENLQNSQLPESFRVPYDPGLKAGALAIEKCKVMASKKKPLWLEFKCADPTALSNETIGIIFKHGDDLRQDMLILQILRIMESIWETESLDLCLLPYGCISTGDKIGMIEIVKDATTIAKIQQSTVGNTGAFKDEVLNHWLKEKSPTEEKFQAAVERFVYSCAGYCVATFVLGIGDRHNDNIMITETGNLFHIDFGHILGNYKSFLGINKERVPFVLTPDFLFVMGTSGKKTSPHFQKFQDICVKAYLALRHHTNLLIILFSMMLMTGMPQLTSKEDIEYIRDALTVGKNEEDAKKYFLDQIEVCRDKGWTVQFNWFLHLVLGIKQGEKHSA", "description": "as §1"}, "[4]": {"molecular_target": "T2, MST1(h) (Homo sapiens, UniProt Q13043)", "T2 construct": "gene STK4", "description": "as §1"}, "[5]": {"molecular_target": "T3, CDK5/p35(h) (Homo sapiens, UniProt Q00535)", "T3 construct": "p35", "description": "as §1"}, "[6]": {"molecular_target": "TBK1(h) (Homo sapiens, UniProt Q9UHD2)", "description": "as §1"}, "[7]": {"molecular_target": "CDK9/cyclin T1(h) (Homo sapiens, UniProt P50750)", "sequence (P50750 whole entry)": "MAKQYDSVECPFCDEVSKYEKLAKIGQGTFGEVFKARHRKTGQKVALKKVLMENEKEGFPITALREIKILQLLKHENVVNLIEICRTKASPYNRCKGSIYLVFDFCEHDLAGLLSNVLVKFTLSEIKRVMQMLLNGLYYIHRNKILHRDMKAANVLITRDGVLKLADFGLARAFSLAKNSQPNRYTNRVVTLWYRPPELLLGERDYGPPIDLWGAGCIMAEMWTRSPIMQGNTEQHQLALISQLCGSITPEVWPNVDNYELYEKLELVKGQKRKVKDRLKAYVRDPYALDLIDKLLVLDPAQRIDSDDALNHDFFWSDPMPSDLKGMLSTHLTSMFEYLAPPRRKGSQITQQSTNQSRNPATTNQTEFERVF", "sequence (O60563 whole entry partner)": "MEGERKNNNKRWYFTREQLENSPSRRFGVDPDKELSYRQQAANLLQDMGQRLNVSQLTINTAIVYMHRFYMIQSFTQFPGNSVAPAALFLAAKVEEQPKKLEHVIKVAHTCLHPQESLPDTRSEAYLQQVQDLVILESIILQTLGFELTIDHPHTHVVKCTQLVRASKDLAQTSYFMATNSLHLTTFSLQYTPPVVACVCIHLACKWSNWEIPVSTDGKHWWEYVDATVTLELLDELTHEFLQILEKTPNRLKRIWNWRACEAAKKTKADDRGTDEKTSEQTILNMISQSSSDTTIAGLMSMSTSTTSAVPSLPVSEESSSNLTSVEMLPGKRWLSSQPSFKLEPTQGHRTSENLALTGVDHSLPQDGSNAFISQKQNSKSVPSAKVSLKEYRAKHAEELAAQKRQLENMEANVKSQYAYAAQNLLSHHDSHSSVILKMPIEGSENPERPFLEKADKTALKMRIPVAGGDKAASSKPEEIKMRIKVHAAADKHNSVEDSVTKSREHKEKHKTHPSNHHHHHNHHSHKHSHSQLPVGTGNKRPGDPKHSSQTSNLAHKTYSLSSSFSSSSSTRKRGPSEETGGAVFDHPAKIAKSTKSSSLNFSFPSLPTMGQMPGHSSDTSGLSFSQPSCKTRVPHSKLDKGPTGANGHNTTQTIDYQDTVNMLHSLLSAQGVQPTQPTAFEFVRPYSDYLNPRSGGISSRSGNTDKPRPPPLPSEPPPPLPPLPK", "description": "as §1"}, "[8]": {"molecular_target": "T4, PKCγ(h) (Homo sapiens, UniProt P05129)", "T4 construct": "gene PRKCG", "description": "as §1"}, "[9]": {"molecular_target": "T5, Abl(h) (Homo sapiens, UniProt P00519)", "T5 construct": "gene ABL1", "description": "as §1"}, "[10]": {"molecular_target": "FGFR1(h) (Homo sapiens, UniProt P11362)", "description": "as §1"}, "[11]": {"molecular_target": "CSK(h) (Homo sapiens, UniProt P41240)", "description": "as §1"}, "[12]": {"molecular_target": "T6, LKB1(h) (Homo sapiens, UniProt Q15831)", "T6 construct": "gene STK11", "description": "as §1"}, "[13]": {"molecular_target": "Plk3(h) (Homo sapiens, UniProt Q9H4B4)", "description": "as §1"}, "[14]": {"molecular_target": "T7, PKCßI(h) (Homo sapiens, UniProt P05771)", "T7 construct": "gene PRKCB; isoform beta I", "description": "as §1"}, "[15]": {"molecular_target": "T8, Rsk1(h) (Homo sapiens, UniProt Q15418)", "T8 construct": "gene RPS6KA1", "T8 sequence (Q15418 whole entry)": "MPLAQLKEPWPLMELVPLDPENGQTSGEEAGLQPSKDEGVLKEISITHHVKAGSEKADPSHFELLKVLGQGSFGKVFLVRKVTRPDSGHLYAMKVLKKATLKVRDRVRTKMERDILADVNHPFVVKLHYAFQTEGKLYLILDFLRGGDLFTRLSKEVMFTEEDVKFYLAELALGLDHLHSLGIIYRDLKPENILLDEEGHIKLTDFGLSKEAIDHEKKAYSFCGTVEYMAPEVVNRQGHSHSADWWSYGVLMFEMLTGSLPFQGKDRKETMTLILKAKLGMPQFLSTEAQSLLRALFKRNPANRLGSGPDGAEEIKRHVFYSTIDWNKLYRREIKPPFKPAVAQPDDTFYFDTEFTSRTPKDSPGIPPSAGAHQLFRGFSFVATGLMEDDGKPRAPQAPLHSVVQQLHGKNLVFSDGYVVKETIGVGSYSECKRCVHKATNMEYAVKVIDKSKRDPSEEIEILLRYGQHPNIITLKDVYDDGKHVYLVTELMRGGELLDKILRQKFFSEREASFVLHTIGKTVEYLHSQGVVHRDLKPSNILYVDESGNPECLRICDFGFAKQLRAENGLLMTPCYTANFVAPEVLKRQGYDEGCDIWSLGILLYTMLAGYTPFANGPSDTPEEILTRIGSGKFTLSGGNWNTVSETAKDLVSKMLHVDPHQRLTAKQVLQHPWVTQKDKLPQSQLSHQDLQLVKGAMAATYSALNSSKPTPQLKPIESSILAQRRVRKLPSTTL", "description": "as §1"}, "[16]": {"molecular_target": "T9, cKit(h) (Homo sapiens, UniProt P10721)", "T9 construct": "gene KIT", "T9 sequence (P10721 whole entry)": "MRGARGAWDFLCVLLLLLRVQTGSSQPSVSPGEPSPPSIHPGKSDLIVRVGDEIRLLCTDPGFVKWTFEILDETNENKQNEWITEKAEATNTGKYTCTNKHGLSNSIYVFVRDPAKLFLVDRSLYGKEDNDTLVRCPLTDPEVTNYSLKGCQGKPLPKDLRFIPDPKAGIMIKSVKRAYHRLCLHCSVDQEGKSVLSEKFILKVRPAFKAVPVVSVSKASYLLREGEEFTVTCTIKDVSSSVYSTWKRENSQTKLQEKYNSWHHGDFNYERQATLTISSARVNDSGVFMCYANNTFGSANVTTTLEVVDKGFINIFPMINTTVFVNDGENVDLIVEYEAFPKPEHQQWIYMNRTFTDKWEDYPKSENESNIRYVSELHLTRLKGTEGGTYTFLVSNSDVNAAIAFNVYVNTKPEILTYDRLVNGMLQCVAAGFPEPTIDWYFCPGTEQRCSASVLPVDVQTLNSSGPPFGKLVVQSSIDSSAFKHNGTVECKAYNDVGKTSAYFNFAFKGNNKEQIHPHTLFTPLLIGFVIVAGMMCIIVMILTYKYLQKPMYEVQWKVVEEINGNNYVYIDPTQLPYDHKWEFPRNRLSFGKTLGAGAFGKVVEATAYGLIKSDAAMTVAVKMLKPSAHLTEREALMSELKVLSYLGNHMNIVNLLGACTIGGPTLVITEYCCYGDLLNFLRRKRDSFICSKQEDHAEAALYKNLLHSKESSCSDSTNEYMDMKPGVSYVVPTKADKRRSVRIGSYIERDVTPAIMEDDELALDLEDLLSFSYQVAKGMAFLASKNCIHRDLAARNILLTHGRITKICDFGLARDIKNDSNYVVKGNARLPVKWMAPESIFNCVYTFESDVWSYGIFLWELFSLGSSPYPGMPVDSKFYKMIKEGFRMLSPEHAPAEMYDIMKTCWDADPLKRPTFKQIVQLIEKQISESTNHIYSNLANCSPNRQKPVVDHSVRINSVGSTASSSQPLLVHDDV", "description": "as §1"}, "[17]": {"molecular_target": "DAPK2(h) (Homo sapiens, UniProt Q9UIK4)", "description": "as §1"}, "[18]": {"molecular_target": "T10, Tie2(h) (Homo sapiens, UniProt Q02763)", "T10 construct": "gene TEK", "description": "as §1"}}, "data": [{"smiles": "Oc1ccc(/C=C/c2cc(O)cc(O)c2)cc1", "note": "[Res, resveratrol]", "values": [{"measurement": "remaining activity at 20 µM", "setting": "[1]", "result": "27 ± 5", "unit": "%"}, {"measurement": "remaining activity at 20 µM", "setting": "[2]", "result": "113 ± 1", "unit": "%"}, {"measurement": "remaining activity at 20 µM", "setting": "[3]", "result": "101 ± 1", "unit": "%"}, {"measurement": "remaining activity at 20 µM", "setting": "[4]", "result": "75 ± 6", "unit": "%"}, {"measurement": "remaining activity at 20 µM", "setting": "[5]", "result": "77 ± 2", "unit": "%"}, {"measurement": "remaining activity at 20 µM", "setting": "[6]", "result": "62 ± 4", "unit": "%"}, {"measurement": "remaining activity at 20 µM", "setting": "[7]", "result": "70 ± 3", "unit": "%"}, {"measurement": "remaining activity at 20 µM", "setting": "[8]", "result": "80 ± 8", "unit": "%"}, {"measurement": "remaining activity at 20 µM", "setting": "[9]", "result": "105 ± 7", "unit": "%"}, {"measurement": "remaining activity at 20 µM", "setting": "[10]", "result": "58 ± 2", "unit": "%"}, {"measurement": "remaining activity at 20 µM", "setting": "[11]", "result": "94 ± 5", "unit": "%"}, {"measurement": "remaining activity at 20 µM", "setting": "[12]", "result": "102 ± 3", "unit": "%"}, {"measurement": "remaining activity at 20 µM", "setting": "[13]", "result": "95 ± 9", "unit": "%"}, {"measurement": "remaining activity at 20 µM", "setting": "[14]", "result": "103 ± 5", "unit": "%"}, {"measurement": "remaining activity at 20 µM", "setting": "[15]", "result": "70 ± 1", "unit": "%"}, {"measurement": "remaining activity at 20 µM", "setting": "[16]", "result": 68, "unit": "%"}, {"measurement": "remaining activity at 20 µM", "setting": "[17]", "result": "67 ± 7", "unit": "%"}, {"measurement": "remaining activity at 20 µM", "setting": "[18]", "result": "94 ± 8", "unit": "%"}]}]}
